Where “and” joins values, the source holds several entries; their conditions need not be identical. Equal entries are not always repeated. Toxic doses and inconclusive results are not listed.
System: L1210 leukemia ip in BDF1 mice, survival T/C
Assay: NCI In Vivo Anticancer Drug Screen. Data for tumor model L1210 Leukemia (intraperitoneal) in B6D2F1 (BDF1) mice
Settings: higher = longer survival
Procedure, shortened: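 Antitumor effect is assessed in tumor-bearing animals. Survival in the compound arm is compared with a vehicle-dosed control arm and expressed as their quotient.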

Which results are given for `c1cc2n(n1)CCN2`?
T/C (endpoint: mean survival time, dose: 26.6 mg/kg/injection, schedule: Q01DX Z (ip), vehicle: methylcellulose (MC)): 110 % of control; T/C (endpoint: mean survival time, dose: 40.0 mg/kg/injection, schedule: Q01DX Z (ip), vehicle: methylcellulose (MC)): 108 % of control; T/C (endpoint: mean survival time, dose: 50.0 mg/kg/injection, schedule: Q01DX009 (ip), vehicle: water): 109 % of control; T/C (endpoint: mean survival time, dose: 60.0 mg/kg/injection, schedule: Q01DX Z (ip), vehicle: methylcellulose (MC)): 107 % of control and 112 % of control; T/C (endpoint: mean survival time, dose: 90.0 mg/kg/injection, schedule: Q01DX Z (ip), vehicle: methylcellulose (MC)): 104 % of control and 112 % of control; T/C (endpoint: mean survival time, dose: 100.0 mg/kg/injection, schedule: Q01DX001 (ip), vehicle: saline): 103 % of control; T/C (endpoint: mean survival time, dose: 100.0 mg/kg/injection, schedule: Q01DX001 (sc), vehicle: saline): 112 % of control; T/C (endpoint: mean survival time, dose: 100.0 mg/kg/injection, schedule: Q01DX009 (ip), vehicle: saline): 112 % of control; T/C (endpoint: mean survival time, dose: 100.0 mg/kg/injection, schedule: Q01DX009 (ip), vehicle: water): 107 % of control; T/C (endpoint: mean survival time, dose: 100.0 mg/kg/injection, schedule: Q04DX003 (ip), vehicle: saline): 98 % of control and 100 % of control and 104 % of control; T/C (endpoint: mean survival time, dose: 100.0 mg/kg/injection, schedule: Q04DX003 (ip), vehicle: water): 114 % of control; T/C (endpoint: mean survival time, dose: 100.0 mg/kg/injection, schedule: Q04DX003 (sc), vehicle: saline): 102 % of control and 105 % of control; T/C (endpoint: mean survival time, dose: 100.0 mg/kg/injection, schedule: Q08DX002 (ip), vehicle: saline): 105 % of control; T/C (endpoint: mean survival time, dose: 132.0 mg/kg/injection, schedule: Q01DX009 (ip), vehicle: saline): 115 % of control; T/C (endpoint: mean survival time, dose: 135.0 mg/kg/injection, schedule: Q01DX Z (ip), vehicle: methylcellulose (MC)): 100 % of control; T/C (endpoint: mean survival time, dose: 200.0 mg/kg/injection, schedule: Q01DX001 (ip), vehicle: saline): 101 % of control; T/C (endpoint: mean survival time, dose: 200.0 mg/kg/injection, schedule: Q01DX001 (oral), vehicle: saline): 105 % of control; T/C (endpoint: mean survival time, dose: 200.0 mg/kg/injection, schedule: Q01DX001 (sc), vehicle: saline): 112 % of control; T/C (endpoint: mean survival time, dose: 200.0 mg/kg/injection, schedule: Q01DX009 (ip), vehicle: water): 121 % of control; T/C (endpoint: mean survival time, dose: 200.0 mg/kg/injection, schedule: Q04DX003 (ip), vehicle: saline): 98 % of control and 107 % of control and 124 % of control; T/C (endpoint: mean survival time, dose: 200.0 mg/kg/injection, schedule: Q04DX003 (oral), vehicle: saline): 110 % of control and 116 % of control; T/C (endpoint: mean survival time, dose: 200.0 mg/kg/injection, schedule: Q04DX003 (sc), vehicle: saline): 108 % of control and 118 % of control; T/C (endpoint: mean survival time, dose: 200.0 mg/kg/injection, schedule: Q08DX002 (ip), vehicle: saline): 93 % of control; T/C (endpoint: mean survival time, dose: 264.0 mg/kg/injection, schedule: Q04DX003 (ip), vehicle: saline): 110 % of control and 117 % of control; T/C (endpoint: mean survival time, dose: 400.0 mg/kg/injection, schedule: Q01DX001 (ip), vehicle: saline): 116 % of control; T/C (endpoint: mean survival time, dose: 400.0 mg/kg/injection, schedule: Q01DX001 (oral), vehicle: saline): 113 % of control; T/C (endpoint: mean survival time, dose: 400.0 mg/kg/injection, schedule: Q04DX003 (ip), vehicle: water): 151 % of control; T/C (endpoint: mean survival time, dose: 400.0 mg/kg/injection, schedule: Q04DX003 (oral), vehicle: saline): 124 % of control; T/C (endpoint: mean survival time, dose: 400.0 mg/kg/injection, schedule: Q04DX003 (sc), vehicle: saline): 120 % of control; T/C (endpoint: mean survival time, dose: 400.0 mg/kg/injection, schedule: Q08DX002 (ip), vehicle: saline): 101 % of control; T/C (endpoint: mean survival time, dose: 600.0 mg/kg/injection, schedule: Q04DX003 (ip), vehicle: saline): 177 % of control; T/C (endpoint: mean survival time, dose: 800.0 mg/kg/injection, schedule: Q01DX001 (oral), vehicle: saline): 119 % of control; T/C (endpoint: mean survival time, dose: 800.0 mg/kg/injection, schedule: Q04DX003 (ip), vehicle: saline): 102 % of control and 104 % of control; T/C (endpoint: mean survival time, dose: 800.0 mg/kg/injection, schedule: Q04DX003 (oral), vehicle: saline): 108 % of control and 118 % of control; T/C (endpoint: mean survival time, dose: 800.0 mg/kg/injection, schedule: Q04DX003 (sc), vehicle: saline): 100 % of control; T/C (endpoint: mean survival time, dose: 800.0 mg/kg/injection, schedule: Q08DX002 (ip), vehicle: saline): 158 % of control; T/C (endpoint: median survival time, dose: 13.0 mg/kg/injection, schedule: Q03HX024 (ip), vehicle: saline): 102 % of control; T/C (endpoint: median survival time, dose: 20.0 mg/kg/injection, schedule: Q03HX024 (ip), vehicle: saline): 100 % of control; T/C (endpoint: median survival time, dose: 30.0 mg/kg/injection, schedule: Q03HX024 (ip), vehicle: saline): 103 % of control; T/C (endpoint: median survival time, dose: 40.0 mg/kg/injection, schedule: Q01DX009 (ip), vehicle: saline): 104 % of control; T/C (endpoint: median survival time, dose: 50.0 mg/kg/injection, schedule: Q01DX009 (oral), vehicle: saline): 110 % of control; T/C (endpoint: median survival time, dose: 50.0 mg/kg/injection, schedule: Q01DX009 (sc), vehicle: saline): 100 % of control; T/C (endpoint: median survival time, dose: 60.0 mg/kg/injection, schedule: Q01DX009 (ip), vehicle: saline): 111 % of control; T/C (endpoint: median survival time, dose: 88.0 mg/kg/injection, schedule: Q01DX009 (ip), vehicle: saline): 113 % of control; T/C (endpoint: median survival time, dose: 100.0 mg/kg/injection, schedule: Q01DX005 (ip), vehicle: saline): 111 % of control; T/C (endpoint: median survival time, dose: 100.0 mg/kg/injection, schedule: Q01DX009 (ip), vehicle: saline): 113 % of control; T/C (endpoint: median survival time, dose: 100.0 mg/kg/injection, schedule: Q01DX009 (oral), vehicle: saline): 115 % of control; T/C (endpoint: median survival time, dose: 100.0 mg/kg/injection, schedule: Q01DX009 (sc), vehicle: saline): 120 % of control; T/C (endpoint: median survival time, dose: 100.0 mg/kg/injection, schedule: Q04DX003 (ip), vehicle: Klucel (hydroxypropylcellulose) (HPC)): 105 % of control; T/C (endpoint: median survival time, dose: 100.0 mg/kg/injection, schedule: Q04DX003 (ip), vehicle: saline): 116 % of control; T/C (endpoint: median survival time, dose: 100.0 mg/kg/injection, schedule: Q08DX002 (ip), vehicle: saline): 100 % of control; T/C (endpoint: median survival time, dose: 108.0 mg/kg/injection, schedule: Q04DX003 (ip), vehicle: saline): 100 % of control; T/C (endpoint: median survival time, dose: 133.0 mg/kg/injection, schedule: Q01DX009 (ip), vehicle: saline): 121 % of control; T/C (endpoint: median survival time, dose: 133.0 mg/kg/injection, schedule: Q04DX003 (ip), vehicle: saline): 119 % of control; T/C (endpoint: median survival time, dose: 133.0 mg/kg/injection, schedule: Q08DX002 (ip), vehicle: saline): 119 % of control; T/C (endpoint: median survival time, dose: 180.0 mg/kg/injection, schedule: Q04DX003 (ip), vehicle: saline): 100 % of control; T/C (endpoint: median survival time, dose: 200.0 mg/kg/injection, schedule: Q01DX001 (ip), vehicle: saline): 103 % of control; T/C (endpoint: median survival time, dose: 200.0 mg/kg/injection, schedule: Q01DX009 (ip), vehicle: saline): 106 % of control; T/C (endpoint: median survival time, dose: 200.0 mg/kg/injection, schedule: Q01DX009 (oral), vehicle: saline): 86 % of control; T/C (endpoint: median survival time, dose: 200.0 mg/kg/injection, schedule: Q01DX009 (sc), vehicle: saline): 150 % of control; T/C (endpoint: median survival time, dose: 200.0 mg/kg/injection, schedule: Q04DX003 (oral), vehicle: saline): 119 % of control and 120 % of control; T/C (endpoint: median survival time, dose: 200.0 mg/kg/injection, schedule: Q08DX002 (oral), vehicle: saline): 111 % of control and 120 % of control; T/C (endpoint: median survival time, dose: 300.0 mg/kg/injection, schedule: Q01DX001 (ip), vehicle: saline): 104 % of control; T/C (endpoint: median survival time, dose: 300.0 mg/kg/injection, schedule: Q04DX003 (ip), vehicle: saline): 110 % of control; T/C (endpoint: median survival time, dose: 400.0 mg/kg/injection, schedule: Q04DX003 (ip), vehicle: Klucel (hydroxypropylcellulose) (HPC)): 150 % of control; T/C (endpoint: median survival time, dose: 400.0 mg/kg/injection, schedule: Q04DX003 (ip), vehicle: saline): 166 % of control; T/C (endpoint: median survival time, dose: 400.0 mg/kg/injection, schedule: Q04DX003 (sc), vehicle: saline): 195 % of control; T/C (endpoint: median survival time, dose: 400.0 mg/kg/injection, schedule: Q08DX002 (ip), vehicle: saline): 150 % of control; T/C (endpoint: median survival time, dose: 444.0 mg/kg/injection, schedule: Q01DX001 (ip), vehicle: saline): 114 % of control; T/C (endpoint: median survival time, dose: 600.0 mg/kg/injection, schedule: Q04DX003 (ip), vehicle: saline): 101 % of control; T/C (endpoint: median survival time, dose: 600.0 mg/kg/injection, schedule: Q04DX003 (oral), vehicle: saline): 90 % of control; T/C (endpoint: median survival time, dose: 600.0 mg/kg/injection, schedule: Q04DX003 (sc), vehicle: saline): 150 % of control; T/C (endpoint: median survival time, dose: 600.0 mg/kg/injection, schedule: Q08DX002 (oral), vehicle: saline): 165 % of control; T/C (endpoint: median survival time, dose: 600.0 mg/kg/injection, schedule: Q08DX002 (sc), vehicle: saline): 180 % of control; T/C (endpoint: median survival time, dose: 660.0 mg/kg/injection, schedule: Q08DX002 (ip), vehicle: saline): 161 % of control; T/C (endpoint: median survival time, dose: 800.0 mg/kg/injection, schedule: Q04DX003 (ip), vehicle: saline): 106 % of control and 70 % of control
